Measured values taken from US12258571B2, “Methods and compositions for inducible expression of neurotrophic factors” (CEDARS-SINAI MEDICAL CENTER, priority 2018, dated 2025).
Values joined by “and” are separate entries in the source; they are usually repeats but may differ in a detail not shown here. Equal values may be shown once.

What was measured:
TRE-Bi promoter [1] = assay: Flow analysis of GFP induction after extensive cell expansion and freeze; format: cell-based, human; conditions: 24 hours after adding dox; cells 6 months in culture after nucleofection, two freeze/thaw cycles
Description: FIG. 5. IPSC-derived NPCs nucleofected with pB-RTP-Tet-GDNF/memClover-FLuc retain their ability to be induced upon the addition of dox. 83% of BF^+ cells were also GFP^+ (P5 Gate) 24 hours after adding dox to cells that were grown in culture for 6 months after nucleofection. Note: Cells were also exposed to two freeze/thaw cycles and were frozen for a total of 10 months during this period.
To quantitatively assess reporter expression from the TRE-Bi promoter, iNPCs were nucleofected as above, along with an Ef1-Renilla plasmid that constitutively expresses Renilla luciferase for protein normalization. […] To assess the kinetics of the TRE-Bi inducible promoter, firefly luciferase activity was quantified in a live culture of the nucleofected iNPCs grown in the presence of beetle luciferin (FIG. 1F). […] As a clinically-relevant cell product would need to be expanded and banked, the Inventors assessed if the TRE-Bi promoter would remain functionally responsive with an extensive cell expansion and freeze.

TRE-Bi promoter [2] = assay: Dual-luciferase assay in nucleofected iNPCs; format: cell-based, human; conditions: 24-hour dox treatment; iNPCs nucleofected with pB-RTP-Tet-GDNF/memClover-FLuc, pBase and Ef1-Renilla
Description: In all experiments, dox solution was maintained in light protection and 4° C. For cell culture, dox (Clontech 631311) was added to culture media at 100 ng/ml. For in vivo work, animals were administered dox (15 μg dox/g weight) every 3-4 days by oral gavage (e.g. 60 μl for a 20 g animal), using a soft-tipped feeding needle (Instech FTP-20-30; Plymouth Meeting, PA) attached to a 1 ml syringe (BD 309659; Franklin Lakes, NJ). To quantitatively assess reporter expression from the TRE-Bi promoter, iNPCs were nucleofected as above, along with an Ef1-Renilla plasmid that constitutively expresses Renilla luciferase for protein normalization. […] To assess the kinetics of the TRE-Bi inducible promoter, firefly luciferase activity was quantified in a live culture of the nucleofected iNPCs grown in the presence of beetle luciferin (FIG. 1F). […] As a clinically-relevant cell product would need to be expanded and banked, the Inventors assessed if the TRE-Bi promoter would remain functionally responsive with an extensive cell expansion and freeze.

GDNF = assay: Blinded postmortem GDNF scoring (DAB stain) of transplanted tissue; format: in vivo, NOD-SCID mice; parameters: key: (−) no positive staining; (+) slight staining; (++) moderate staining; (+++) extensive staining; conditions: one line per animal; for GDNF Str/CC: striatum/corpus callosum
Description: In all experiments, dox solution was maintained in light protection and 4° C. For cell culture, dox (Clontech 631311) was added to culture media at 100 ng/ml. For in vivo work, animals were administered dox (15 μg dox/g weight) every 3-4 days by oral gavage (e.g. 60 μl for a 20 g animal), using a soft-tipped feeding needle (Instech FTP-20-30; Plymouth Meeting, PA) attached to a 1 ml syringe (BD 309659; Franklin Lakes, NJ). Nucleofected iNPCs, which underwent two rounds of FACS for BFP, were transplanted into the striatum (41 of cells at 100,000 cells/μ1 into each hemisphere) of 6-month old NOD-SCID mice (Nod.cb17-Prkdc^scid/J, Jackson Lab #1303; Bar Harbor, ME). Three days before transplantation, a subset of cells was treated with dox. For transplantation, cells were dissociated and diluted to a final concentration of 100,000 cells/μl in conditioned media, and maintained on ice. Animals were anesthetized with isoflurane and placed in a stereotaxic frame. Cells were injected bilaterally relative to bregma at 0.7 mm rostral and +/−2.0 mm lateral. A 5 μl Hamilton microsyringe backfilled with PBS was loaded with 2 μl of cell solution and inserted to a depth of −4.00 mm. The microsyringe was then raised to −3.50 mm and the cell solution was injected at 1 μl/min. After cell injection, the microsyringe was raised to −3.00 mm, held for 2 minutes and slowly withdrawn. Animals were checked daily. Immunostained sections were photographed using a Leica DM200 LED microscope. Images were scored based on stain intensity of DAB GDNF stain by an observer blinded to the experiment conditions (dox vs no dox). Finally, DAB staining, which provides a high sensitivity of protein detection and has effectively tracked human GDNF-expressing NPC transplants, was used to determine the levels and location of GDNF expression.

[3] = animals that ended trial OFF dox (dox withdrawn)
[4] = animals that ended trial ON dox

C[C@H]1c2cccc(O)c2C(=O)C2=C(O)[C@]3(O)C(=O)C(C(N)=O)=C(O)[C@@H](N(C)C)[C@@H]3[C@@H](O)[C@@H]21 [dox, doxycycline]
BFP+ cells induced to express GFP (TRE-Bi promoter [1]): 83%
increase in firefly luciferase activity (normalized to Renilla) (TRE-Bi promoter [2]): ~1300 fold
GDNF Meninges (GDNF; [3]): −
GDNF Str/CC (GDNF; [3]): −
GDNF Meninges (GDNF; [4]): +++ and − (3×) and + (2×) and ++
GDNF Str/CC (GDNF; [4]): − (3×) and ++ (3×) and +
